Laboratory results published in US20210361566A1, “FORMULATIONS OF 5-HYDROXY TRYPTOPHAN (5-HTP) FOR BETTER BIOAVAILABILITY FOR VARIOUS INDICATIONS” (National University of Singapore, priority 2018, published 2021).

What was measured:
[1] = Water solubility of 5-HTP free base; assay type: physicochemical; conditions: free base form
Procedure: (§1) 5-HTP dosing: The free base form of 5-HTP was used (5-HTP has a water solubility of >10 mg/mL).

[2] = Release rate calculation Rinput=(Css×Vd×kel)/F, Scenario 1 (5-HTP without peripheral decarboxylase inhibitor); set-up: species or system human
Text: As calculated above, the relative upper GI tract:colon bioavailability was 20% (corresponding to an absolute colonic bioavailability of 4%). Based on the above, according to general teachings in the field of sustained-release drug delivery (Sutton S C. The use of gastrointestinal intubation studies for controlled release development. Br J Clin Pharmacol. 2009 September; 68[3]: 342-54) it is concluded that gastroretentive technologies are needed in order to achieve a desirable extended release profile of 5-HTP together with a desirable sustained and therapeutically active 5-HTP plasma level profile. Further, the determination of the oral bioavailability (Fpo) enables computation of the delivery rate of 5-HTP needed from the dosage form to achieve a given plasma level of 5-HTP at steady state. Moreover, computation of the resultant plasma levels of 5-HTP can be done for embodiments where a peripheral decarboxylase inhibitor (with different levels of effects on 5-HTP bioavailability and elimination half-life) is included in the dosage form.
The desired release rate profile was calculated as follows, for a dosage form disclosed in the present invention when administering 5-HTP without a peripheral decarboxylase inhibitor:
Substituting, we get Rinput=˜25 mg/hr, to achieve average steady-state plasma concentrations of 5-HTP of 1 mg/L (1000 ng/ml).

[3] = mice; cited from earlier work
[4] = Absolute and regional intestinal bioavailability of 5-HTP in humans (oral, colonic, intravenous dosing; plasma LC-MS); assay type: in vivo; conditions: both sexes, other: colonic (by colonoscopy), human, colonic 200 mg vs IV 50 mg, read-out: absolute bioavailability (F), colonic dosing
Procedure: Determination of absolute and regional intestinal bioavailability of 5-HTP in humans.
as §1
Colonic: 5-HTP free base saline solution 200 mg.
Intravenous: 5-HTP free base saline solution 50 mg.
Oral/Upper GI: Two 5-HTP gelatin tablets of 100 mg 5-HTP free base (200 mg total dose).
Subjects: Healthy male and female volunteers aged 18 to 65 years with a body mass index (BMI) of 19 to 28 were eligible for the study. Subjects were admitted to the investigational medical unit (IMU) 2 h before 5-HTP administration and remained at the IMU for 24 h following, for blood sampling and safety assessment. […]
Plasma samples analysis: Plasma samples were stored at −80° C. until analysis. 5-HTP and the metabolite 5-hydroxyindole-acetic-acid (5-HIAA) were quantified by liquid chromatography with mass-spectrometry detection.
Data analysis: The PK data were analyzed using noncompartmental (NCA) and compartmental (mixed effects) mathematical modelling approaches, to calculate area 5-HTP plasma under the curve (AUC) for each subject for each 5-HTP administration.
Results: The human bioavailability of 5-HTP via the various routes of administration above was established in human subjects by administering 5-HTP through these various routes and quantifying the resultant 5-HTP plasma levels at various time points. […]

[5] = co-administration of 5-HTP and a peripheral decarboxylase inhibitor, in some cases; cited from earlier work

solubility [1]: > 10000 µg/mL
Rinput, release rate of 5-HTP needed for average steady-state plasma concentration of 1 mg/L (1000 ng/ml) ([2]; Scenario 1: F ~0.2 oral, Vd ~10 L, kel 0.462 h^−1, no peripheral decarboxylase inhibitor): ~25 mg/h
kel, elimination rate constant ([2]; calculated from plasma half-life of 1.5 hrs): 0.462 h⁻¹
bioavailability [4]: 4%
Compound: N[C@@H](Cc1c[nH]c2ccc(O)cc12)C(=O)O [5-HTP, 5-hydroxytryptophan]
absorption in the colon [3]: very effectively absorbed
increase of plasma 5-HTP levels by co-administration of a peripheral decarboxylase inhibitor [5]: one-fold to about fifteen-fold
